{"source": "patent US8092816B2", "about": "“Insecticidal compositions for control of general household pests” (priority 2004, dated 2012)", "key": {"[1]": {"system": "American cockroach", "test": "Example 9: American cockroach knockdown and mortality, bifenthrin and thiamethoxam", "assay_type": "in vivo", "excerpt": "(§1) The following examples further illustrate the present invention, but, of course, should not be construed as in any way limiting its scope. The examples set forth certain biological data illustrating the efficacy of the compositions of the present invention in controlling general household pests. Each example embodies a separate test wherein the pests were randomly selected from a population at a random age. As a result, from example to example, the ages of the pests can be very different. This age difference potentially translates to different baselines for each example. Therefore, data should only be compared within the example and not from example to example due to the differences in age of the pests from example to example. Unless otherwise indicated, all parts, percentages, and the like are by weight. The spray chamber used in the examples was approximately 76 inches tall, 73 inches long and 31 inches deep with an adjustable shelf (approximately 22 inches deep) and a movable spray nozzle. The spray chambers were calibrated to deliver a volume of approximately 1 gallon of liquid per 1000 square feet of area at about 14 pounds per square inch of pressure. A DeVilbiss hand held sprayer (Atomizer model 152) manufactured by DeVilbiss located in Glendale Heights, Ill. was used in testing house flies and mosquitoes. The DeVilbiss was used to apply approximately 3-5 milliliters of product at about 10 pounds per square inch.\n(§2) The compositions of the present invention were tested for American cockroach activity in the following manner:\n(§3) Test compositions made up of TALSTARONE® MULTI-INSECTICIDE and a water dispersible granular of thiamethoxam (CENTRIC) in distilled water were prepared that provided appropriate rates of application of combinations of bifenthrin and thiamethoxam, as well as bifenthrin and thiamethoxam alone.\n(§4) The spray chamber was then calibrated to deliver the treatment solution at the desired volume and pressure over the desired area on the chamber shelf. Spray chamber shelf height was adjusted to approximately 18 inches from the spray tip. The shelf was then covered with aluminum foil and the center of the shelf from front-to-back and end-to-end was determined. A desired number of 4.0″ sieve circles were marked on the aluminum foil with a permanent marker. The inside of a desired number of PVC rings were coated with a petroleum jelly/mineral oil mixture (1:2 ratio). The PVC rings were place on the sieve circles. 10 male American cockroaches were placed inside each PVC ring. The sprayer was activated and the test compound was applied to each PVC ring interior. American cockroach knockdown and mortality were measured."}, "[2]": {"system": "Oriental cockroach", "test": "Example 15: Oriental cockroach knockdown and mortality, bifenthrin and clothianidin", "assay_type": "in vivo", "excerpt": "as §1\nThe compositions of the present invention were tested for Oriental cockroach activity in the following manner:\n(§5) Test compositions made up of TALSTARONE® MULTI-INSECTICIDE and a 16% a.i. water dispersible granular of clothianidin in distilled water were prepared that provided appropriate rates of application of combinations of bifenthrin and clothianidin, as well as bifenthrin and clothianidin alone.\nas §4, with “Oriental” for “American”"}, "[3]": {"system": "House Fly", "test": "Example 12: house fly knockdown and mortality, bifenthrin and thiamethoxam (higher thiamethoxam rates)", "assay_type": "in vivo", "excerpt": "as §1\nThe compositions of the present invention were tested for house fly activity in the following manner:\nas §3\nA DeVilbiss hand held sprayer was used to deliver the treatment solution at the desired volume and pressure. The house flies to be treated were collected and placed in screened 16 oz paper cups. The hand held sprayer was activated and the test compound was applied to each paper cup interior. House fly knockdown and mortality were measured."}, "[4]": {"system": "Red Imported Fire Ant", "test": "Example 16: red imported fire ant knockdown and mortality, bifenthrin and clothianidin", "assay_type": "in vivo, Solenopsis invicta", "excerpt": "as §1\nThe compositions of the present invention were tested for red imported fire ant activity in the following manner:\nas §5\nThe spray chamber was then calibrated to deliver the treatment solution at the desired volume and pressure over the desired area on the chamber shelf. Spray chamber shelf height was adjusted to approximately 18 inches from the spray tip. The shelf was then covered with aluminum foil and the center of the shelf from front-to-back and end-to-end was determined. The red imported fire ants to be treated were collected and placed in screened 16 oz paper cups. The paper cups were placed onto the aluminum foil on the spray chamber shelf. The sprayer was activated and the test compound was applied to each paper cup interior. Red imported fire ant knockdown and mortality were measured."}, "[5]": {"system": "American cockroach", "test": "Example 14: American cockroach knockdown and mortality, bifenthrin and clothianidin", "assay_type": "in vivo", "excerpt": "as §1, §2, §5, §4"}, "[6]": {"details": "rate of appln. 10 PPM (0.001% by weight)"}, "[7]": {"details": "rate of appln. 50 PPM (0.005% by weight)"}}, "data": [{"compound": "Cc1c(COC(=O)[C@@H]2[C@H](/C=C(\\Cl)C(F)(F)F)C2(C)C)cccc1-c1ccccc1", "note": "(racemic) [A, 2-methylbiphenyl-3-ylmethyl (Z)-(1RS)-cis-3-(2-chloro-3,3,3-trifluoroprop-1-enyl)-2,2-dimethylcyclopropanecarboxylate]", "values": [{"measurement": "Knockdown Rate @ 15 minute", "setting": "[1]; 10 PPM, 0.001% by weight", "value": 0, "unit": "%"}, {"measurement": "Knockdown Rate @ 30 minute", "setting": "[1]; 10 PPM, 0.001% by weight", "value": 0, "unit": "%"}, {"measurement": "Mortality Rate @ 60 minutes", "setting": "[1]; 10 PPM, 0.001% by weight", "value": 0, "unit": "%"}, {"measurement": "Mortality Rate @ 120 minutes", "setting": "[1]; 10 PPM, 0.001% by weight", "value": 0, "unit": "%"}, {"measurement": "Mortality Rate @ 4 hours", "setting": "[1]; 10 PPM, 0.001% by weight", "value": 0, "unit": "%"}, {"measurement": "Mortality Rate @ 1 day", "setting": "[1]; 10 PPM, 0.001% by weight", "value": 5, "unit": "%"}, {"measurement": "Knockdown Rate @ 15 minute", "setting": "[1]; 50 PPM, 0.005% by weight", "value": 0, "unit": "%"}, {"measurement": "Knockdown Rate @ 30 minute", "setting": "[1]; 50 PPM, 0.005% by weight", "value": 0, "unit": "%"}, {"measurement": "Mortality Rate @ 60 minutes", "setting": "[1]; 50 PPM, 0.005% by weight", "value": 0, "unit": "%"}, {"measurement": "Mortality Rate @ 120 minutes", "setting": "[1]; 50 PPM, 0.005% by weight", "value": 0, "unit": "%"}, {"measurement": "Mortality Rate @ 4 hours", "setting": "[1]; 50 PPM, 0.005% by weight", "value": 0, "unit": "%"}, {"measurement": "Mortality Rate @ 1 day", "setting": "[1]; 50 PPM, 0.005% by weight", "value": 30, "unit": "%"}, {"measurement": "Knockdown Rate @ 10 minute", "setting": "[2]; [6]", "value": 0, "unit": "%"}, {"measurement": "Knockdown Rate @ 15 minute", "setting": "[2]; [6]", "value": 0, "unit": "%"}, {"measurement": "Knockdown Rate @ 30 minute", "setting": "[2]; [6]", "value": 0, "unit": "%"}, {"measurement": "Mortality Rate @ 60 minute", "setting": "[2]; [6]", "value": 0, "unit": "%"}, {"measurement": "Mortality Rate @ 120 minute", "setting": "[2]; [6]", "value": 0, "unit": "%"}, {"measurement": "Mortality Rate @ 4 hours", "setting": "[2]; [6]", "value": 0, "unit": "%"}, {"measurement": "Mortality Rate @ 1 day", "setting": "[2]; [6]", "value": 0, "unit": "%"}, {"measurement": "Mortality Rate @ 2 days", "setting": "[2]; [6]", "value": 3, "unit": "%"}, {"measurement": "Knockdown Rate @ 10 minute", "setting": "[2]; [7]", "value": 0, "unit": "%"}, {"measurement": "Knockdown Rate @ 15 minute", "setting": "[2]; [7]", "value": 0, "unit": "%"}, {"measurement": "Knockdown Rate @ 30 minute", "setting": "[2]; [7]", "value": 0, "unit": "%"}, {"measurement": "Mortality Rate @ 60 minute", "setting": "[2]; [7]", "value": 0, "unit": "%"}, {"measurement": "Mortality Rate @ 120 minute", "setting": "[2]; [7]", "value": 0, "unit": "%"}, {"measurement": "Mortality Rate @ 4 hours", "setting": "[2]; [7]", "value": 10, "unit": "%"}, {"measurement": "Mortality Rate @ 1 day", "setting": "[2]; [7]", "value": 20, "unit": "%"}, {"measurement": "Mortality Rate @ 2 days", "setting": "[2]; [7]", "value": 23, "unit": "%"}, {"measurement": "Knockdown Rate @ 15 minute", "setting": "[3]; 10 PPM, 0.001% by weight", "value": 0, "unit": "%"}, {"measurement": "Knockdown Rate @ 30 minute", "setting": "[3]; 10 PPM, 0.001% by weight", "value": 0, "unit": "%"}, {"measurement": "Knockdown Rate @ 45 minutes", "setting": "[3]; 10 PPM, 0.001% by weight", "value": 17, "unit": "%"}, {"measurement": "Knockdown Rate @ 60 minutes", "setting": "[3]; 10 PPM, 0.001% by weight", "value": 40, "unit": "%"}, {"measurement": "Knockdown Rate @ 120 minutes", "setting": "[3]; 10 PPM, 0.001% by weight", "value": 63, "unit": "%"}, {"measurement": "Knockdown Rate @ 4 hours", "setting": "[3]; 10 PPM, 0.001% by weight", "value": 50, "unit": "%"}, {"measurement": "Mortality Rate @ 1 day", "setting": "[3]; 10 PPM, 0.001% by weight", "value": 30, "unit": "%"}, {"measurement": "Knockdown Rate @ 15 minute", "setting": "[3]; 50 PPM, 0.005% by weight", "value": 0, "unit": "%"}, {"measurement": "Knockdown Rate @ 30 minute", "setting": "[3]; 50 PPM, 0.005% by weight", "value": 78, "unit": "%"}, {"measurement": "Knockdown Rate @ 45 minutes", "setting": "[3]; 50 PPM, 0.005% by weight", "value": 97, "unit": "%"}, {"measurement": "Knockdown Rate @ 60 minutes", "setting": "[3]; 50 PPM, 0.005% by weight", "value": 97, "unit": "%"}, {"measurement": "Knockdown Rate @ 120 minutes", "setting": "[3]; 50 PPM, 0.005% by weight", "value": 97, "unit": "%"}, {"measurement": "Knockdown Rate @ 4 hours", "setting": "[3]; 50 PPM, 0.005% by weight", "value": 97, "unit": "%"}, {"measurement": "Mortality Rate @ 1 day", "setting": "[3]; 50 PPM, 0.005% by weight", "value": 97, "unit": "%"}, {"measurement": "Knockdown Rate @ 5 minute", "setting": "[4]; [6]", "value": 30, "unit": "%"}, {"measurement": "Knockdown Rate @ 10 minute", "setting": "[4]; [6]", "value": 93, "unit": "%"}, {"measurement": "Knockdown Rate @ 15 minute", "setting": "[4]; [6]", "value": 95, "unit": "%"}, {"measurement": "Knockdown Rate @ 30 minutes", "setting": "[4]; [6]", "value": 100, "unit": "%"}, {"measurement": "Mortality Rate @ 60 minutes", "setting": "[4]; [6]", "value": 65, "unit": "%"}, {"measurement": "Mortality Rate @ 120 minutes", "setting": "[4]; [6]", "value": 100, "unit": "%"}, {"measurement": "Mortality Rate @ 4 hours", "setting": "[4]; [6]", "value": 100, "unit": "%"}, {"measurement": "Knockdown Rate @ 5 minute", "setting": "[4]; [7]", "value": 10, "unit": "%"}, {"measurement": "Knockdown Rate @ 10 minute", "setting": "[4]; [7]", "value": 70, "unit": "%"}, {"measurement": "Knockdown Rate @ 15 minute", "setting": "[4]; [7]", "value": 95, "unit": "%"}, {"measurement": "Knockdown Rate @ 30 minutes", "setting": "[4]; [7]", "value": 100, "unit": "%"}, {"measurement": "Mortality Rate @ 60 minutes", "setting": "[4]; [7]", "value": 100, "unit": "%"}, {"measurement": "Mortality Rate @ 120 minutes", "setting": "[4]; [7]", "value": 100, "unit": "%"}, {"measurement": "Mortality Rate @ 4 hours", "setting": "[4]; [7]", "value": 100, "unit": "%"}, {"measurement": "Knockdown Rate @ 10 minute", "setting": "[5]; [6]", "value": 0, "unit": "%"}, {"measurement": "Knockdown Rate @ 15 minute", "setting": "[5]; [6]", "value": 0, "unit": "%"}, {"measurement": "Knockdown Rate @ 30 minute", "setting": "[5]; [6]", "value": 0, "unit": "%"}, {"measurement": "Mortality Rate @ 60 minute", "setting": "[5]; [6]", "value": 0, "unit": "%"}, {"measurement": "Mortality Rate @ 120 minutes", "setting": "[5]; [6]", "value": 0, "unit": "%"}, {"measurement": "Mortality Rate @ 4 hours", "setting": "[5]; [6]", "value": 0, "unit": "%"}, {"measurement": "Mortality Rate @ 1 day", "setting": "[5]; [6]", "value": 10, "unit": "%"}, {"measurement": "Mortality Rate @ 2 days", "setting": "[5]; [6]", "value": 30, "unit": "%"}, {"measurement": "Knockdown Rate @ 10 minute", "setting": "[5]; [7]", "value": 5, "unit": "%"}, {"measurement": "Knockdown Rate @ 15 minute", "setting": "[5]; [7]", "value": 10, "unit": "%"}, {"measurement": "Knockdown Rate @ 30 minute", "setting": "[5]; [7]", "value": 5, "unit": "%"}, {"measurement": "Mortality Rate @ 60 minute", "setting": "[5]; [7]", "value": 0, "unit": "%"}, {"measurement": "Mortality Rate @ 120 minutes", "setting": "[5]; [7]", "value": 0, "unit": "%"}, {"measurement": "Mortality Rate @ 4 hours", "setting": "[5]; [7]", "value": 35, "unit": "%"}, {"measurement": "Mortality Rate @ 1 day", "setting": "[5]; [7]", "value": 40, "unit": "%"}, {"measurement": "Mortality Rate @ 2 days", "setting": "[5]; [7]", "value": 55, "unit": "%"}]}]}
